# Assay results taken from patent US11377469B2, “CD73 inhibitors” (ORIC Pharmaceuticals, Inc., priority 2017, dated 2022).
# Target: CD73 (Homo sapiens (Human), UniProt P21589)
# Experiment: Biochemical Assay (CD73 inhibition, AMP hydrolysis, Malachite Green readout)
# Settings: CD73 0.3208 nM, AMP 15 μM, Tris-HCl pH 7.4, Malachite Green absorbance
# Sequence of CD73 (P21589 27-574): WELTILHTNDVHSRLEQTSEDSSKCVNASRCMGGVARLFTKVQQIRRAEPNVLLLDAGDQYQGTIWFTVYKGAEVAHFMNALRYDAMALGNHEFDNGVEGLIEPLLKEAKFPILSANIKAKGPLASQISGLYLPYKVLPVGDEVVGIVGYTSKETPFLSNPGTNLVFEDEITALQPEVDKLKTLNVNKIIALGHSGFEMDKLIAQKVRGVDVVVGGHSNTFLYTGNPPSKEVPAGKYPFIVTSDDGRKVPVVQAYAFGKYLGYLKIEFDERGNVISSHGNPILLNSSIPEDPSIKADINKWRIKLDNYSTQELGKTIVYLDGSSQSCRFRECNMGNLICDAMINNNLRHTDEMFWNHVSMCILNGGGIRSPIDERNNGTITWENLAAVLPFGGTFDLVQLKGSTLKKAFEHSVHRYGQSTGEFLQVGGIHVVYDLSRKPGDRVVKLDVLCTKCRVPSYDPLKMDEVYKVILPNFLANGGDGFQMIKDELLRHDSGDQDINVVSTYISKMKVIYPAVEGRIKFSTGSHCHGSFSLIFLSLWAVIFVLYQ
row,Compound,IC50 [nM]
1,"CN(c1nc(Cl)nc2c1cnn2[C@@H]1O[C@H](COCP(=O)(O)O)[C@@H](O)[C@H]1O)[C@H]1CCc2ccccc21 [Example 31, ((((2R,3S,4R,5R)-5-(6-chloro-4-(((S)-2,3-dihydro-1H-inden-1-yl)(methyl)amino)-1H-pyrazolo[3,4-d]pyrimidin-1-yl)-3,4-dihydroxytetrahydrofuran-2-yl)methoxy)methyl)phosphonic acid]",≤ 500
2,"O=P(O)(O)COC[C@H]1O[C@@H](n2ncc3c(NCc4cccc(Cl)c4)nc(Cl)nc32)[C@H](O)[C@@H]1O [Example 27, ((((2R,3S,4R,5R)-5-(6-chloro-4-((3-chlorobenzyl)amino)-1H-pyrazolo[3,4-d]pyrimidin-1-yl)-3,4-dihydroxytetrahydrofuran-2-yl)methoxy)methyl)phosphonic acid]",≤ 500
3,"O=C(CP(=O)(O)O)N(Cc1ccccc1)C[C@H]1O[C@@H](n2ncc3c(NCc4ccccc4Cl)nc(Cl)nc32)[C@H](O)[C@@H]1O [Example 28, (2-(benzyl(((2R,3S,4R,5R)-5-(6-chloro-4-((2-chlorobenzyl)amino)-1H-pyrazolo[3,4-d]pyrimidin-1-yl)-3,4-dihydroxytetrahydrofuran-2-yl)methyl)amino)-2-oxoethyl)phosphonic acid]",> 1000
4,"O=P(O)(O)CS(=O)(=O)C[C@H]1O[C@@H](n2nnc3c(N[C@H]4CCc5ccccc54)nc(Cl)nc32)[C@H](O)[C@@H]1O [Example 130, (((((2S,3S,4R,5R)-5-(5-chloro-7-(((S)-2,3-dihydro-1H-inden-1-yl)amino)-3H-[1,2,3]triazolo[4,5-d]pyrimidin-3-yl)-3,4-dihydroxytetrahydrofuran-2-yl)methyl)sulfonyl)methyl)phosphonic acid]",≤ 500
5,"CC(C)CN(C[C@H]1O[C@@H](n2ncc3c(NCc4ccccc4Cl)nc(Cl)nc32)[C@H](O)[C@@H]1O)C(=O)CP(=O)(O)O [Example 20, (2-((((2R,3S,4R,5R)-5-(6-Chloro-4-((2-chlorobenzyl)amino)-1H-pyrazolo[3,4-d]pyrimidin-1-yl)-3,4-dihydroxytetrahydrofuran-2-yl)methyl)(isobutyl)amino)-2-oxoethyl)phosphonic acid]",> 1000
6,O=P(O)(O)CS(=O)(=O)C[C@H]1O[C@@H](n2nnc3c(NCc4cccc(Cl)c4)nc(Cl)nc32)[C@H](O)[C@@H]1O [Example 122],≤ 500
7,"O=P(O)(O)COC[C@H]1O[C@@H](n2ncc3c(NC[C@H]4CCOC4)nc(Cl)nc32)[C@H](O)[C@@H]1O [Example 45, ((((2R,3S,4R,5R)-5-(6-chloro-4-((((R)-tetrahydrofuran-3-yl)methyl)amino)-1H-pyrazolo[3,4-d]pyrimidin-1-yl)-3,4-dihydroxytetrahydrofuran-2-yl)methoxy)methyl)phosphonic acid]",≤ 500
8,"O=P(O)(O)COC[C@H]1O[C@@H](n2ncc3c(NC4CC4)nc(Cl)nc32)[C@H](O)[C@@H]1O [Example 76, ((((2R,3S,4R,5R)-5-(6-chloro-4-(cyclopropylamino)-1H-pyrazolo[3,4-d]pyrimidin-1-yl)-3,4-dihydroxytetrahydrofuran-2-yl)methoxy)methyl)phosphonic acid]",≤ 500

# Next, values leading:
row,IC50 [nM],Compound
1,≤ 500,"CN(Cc1ccccc1)c1nc(Cl)nc2c1cnn2[C@@H]1O[C@H](COCP(=O)(O)O)[C@@H](O)[C@H]1O [Example 7, ((((2R,3S,4R,5R)-5-(4-(Benzyl(methyl)amino)-6-chloro-1H-pyrazolo[3,4-d]pyrimidin-1-yl)-3,4-dihydroxytetrahydrofuran-2-yl)methoxy)methyl)phosphonic acid]"
2,≤ 500,"O=P(O)(O)COC[C@H]1O[C@@H](n2ncc3c(N[C@@H]4CCOC4)nc(Cl)nc32)[C@H](O)[C@@H]1O [Example 80, ((((2R,3S,4R,5R)-5-(6-chloro-4-(((R)-tetrahydrofuran-3-yl)amino)-1H-pyrazolo[3,4-d]pyrimidin-1-yl)-3,4-dihydroxytetrahydrofuran-2-yl)methoxy)methyl)phosphonic acid]"
3,≤ 500,"CN(Cc1cccc(Cl)c1)c1nc(Cl)nc2c1cnn2[C@@H]1O[C@H](COCP(=O)(O)O)[C@@H](O)[C@H]1O [Example 37, ((((2R,3S,4R,5R)-5-(6-chloro-4-((3-chlorobenzyl)(methyl)amino)-1H-pyrazolo[3,4-d]pyrimidin-1-yl)-3,4-dihydroxytetrahydrofuran-2-yl)methoxy)methyl)phosphonic acid]"
4,≤ 500,"CN(C[C@H]1O[C@@H](n2ncc3c(NCc4ccccc4Cl)nc(Cl)nc32)[C@H](O)[C@@H]1O)C(=O)CP(=O)(O)O [Example 9, (2-((((2R,3S,4R,5R)-5-(6-chloro-4-((2-chlorobenzyl)amino)-1H-pyrazolo[3,4-d]pyrimidin-1-yl)-3,4-dihydroxytetrahydrofuran-2-yl)methyl)(methyl)amino)-2-oxoethyl)phosphonic acid]"
